From the supplement of paper PMC11451515

System: NOMO1
Test: cell viability relative to DMSO control; higher = less cytotoxic
Settings: 48 h
Procedure, shortened: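 Library compounds in DMSO were pin-dosed into 1536-well plates (5 μl) holding NOMO1 or SEM (500 cells/well) or P12-Ichikawa (1000 cells/well) leukemia cells, across an 11-point threefold series of 47 μM to 0.79 nM. Each cell line had been adapted for at least four passages in each medium. CellTiter-Glo One luminescence was read after 48 h at 37°C. Viability is the per-plate percentage relative to DMSO wells, with cell-free wells as background.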

[1] = RPMI 5 mM glucose + 10% FBS, 0.000781 µM
[2] = RPMI 5 mM glucose + 10% FBS, 0.00234 µM
[3] = RPMI 5 mM glucose + 10% FBS, 0.00702 µM
[4] = RPMI 5 mM glucose + 10% FBS, 0.0211 µM
[5] = RPMI 5 mM glucose + 10% FBS, 0.0632 µM
[6] = RPMI 5 mM glucose + 10% FBS, 0.19 µM
[7] = RPMI 5 mM glucose + 10% FBS, 0.569 µM
[8] = RPMI 5 mM glucose + 10% FBS, 1.71 µM
[9] = RPMI 5 mM glucose + 10% FBS, 5.12 µM
[10] = RPMI 5 mM glucose + 10% FBS, 15.4 µM
[11] = RPMI 5 mM glucose + 10% FBS, 46.1 µM
[12] = RPMI 5 mM glucose + 10% dialyzed FBS, 0.000781 µM
[13] = RPMI 5 mM glucose + 10% dialyzed FBS, 0.00234 µM
[14] = RPMI 5 mM glucose + 10% dialyzed FBS, 0.00702 µM
[15] = RPMI 5 mM glucose + 10% dialyzed FBS, 0.0211 µM
[16] = RPMI 5 mM glucose + 10% dialyzed FBS, 0.0632 µM
[17] = RPMI 5 mM glucose + 10% dialyzed FBS, 0.19 µM
[18] = RPMI 5 mM glucose + 10% dialyzed FBS, 0.569 µM
[19] = RPMI 5 mM glucose + 10% dialyzed FBS, 1.71 µM
[20] = RPMI 5 mM glucose + 10% dialyzed FBS, 5.12 µM
[21] = RPMI 5 mM glucose + 10% dialyzed FBS, 15.4 µM
[22] = RPMI 5 mM glucose + 10% dialyzed FBS, 46.1 µM
[23] = HPLM + 10% dialyzed FBS, 0.000781 µM
[24] = HPLM + 10% dialyzed FBS, 0.00234 µM
[25] = HPLM + 10% dialyzed FBS, 0.00702 µM
[26] = HPLM + 10% dialyzed FBS, 0.0211 µM
[27] = HPLM + 10% dialyzed FBS, 0.0632 µM
[28] = HPLM + 10% dialyzed FBS, 0.19 µM
[29] = HPLM + 10% dialyzed FBS, 0.569 µM
[30] = HPLM + 10% dialyzed FBS, 1.71 µM
[31] = HPLM + 10% dialyzed FBS, 5.12 µM
[32] = HPLM + 10% dialyzed FBS, 15.4 µM
[33] = HPLM + 10% dialyzed FBS, 46.1 µM

Structure (SMILES)	cell viability [1] [%]	cell viability [2] [%]	cell viability [3] [%]	cell viability [4] [%]	cell viability [5] [%]	cell viability [6] [%]	cell viability [7] [%]	cell viability [8] [%]	cell viability [9] [%]	cell viability [10] [%]	cell viability [11] [%]	cell viability [12] [%]	cell viability [13] [%]	cell viability [14] [%]	cell viability [15] [%]	cell viability [16] [%]	cell viability [17] [%]	cell viability [18] [%]	cell viability [19] [%]	cell viability [20] [%]	cell viability [21] [%]	cell viability [22] [%]	cell viability [23] [%]	cell viability [24] [%]	cell viability [25] [%]	cell viability [26] [%]	cell viability [27] [%]	cell viability [28] [%]	cell viability [29] [%]	cell viability [30] [%]	cell viability [31] [%]	cell viability [32] [%]	cell viability [33] [%]
COc1nc(-c2ccc3c(c2)OCO3)n(-c2ccc(NC(=O)CSc3ccccc3)cc2)n1	105	108	114	103	113	106	107	102	116	89.1	21.2	102	108	110	117	105	106	103	105	97.7	98.7	23.1											
Cc1[nH]c(/C=C2\C(=O)Nc3ccc([S+](=O)([O-])N(C)c4cccc(Cl)c4)cc32)c(C)c1C(=O)N1CCN(C)CC1																							114	131	123	103	119	99.2	115	120	109	103	10.1
CC#C[C@]1(O)CC[C@H]2[C@@H]/3CCC/4=C/C(=O)CCC4=C3[C@H](C[C@]12C)C5=CC=C(C=C5)N(C)C	83.5	95.2	91.3	86.2	90	88.1	93.4	95.5	73.2	9.23	5.91	90.7	81.5	88.7	97.2	110	90.3	93	85.4	70.9	9.38	6.16	95.5	99.9	101	102	103	96.1	102	94.8	79.3	9.1	6.71
NC1CCC(N[C@@H]2C[C@H]2c2ccccc2)CC1 (some centres not stated)	95.3	88.9	101	104	101	89.4	94.4	89.8	94.3	100	93.3	95.5	97	96	96.8	100	96.7	85.5	93.8	99.7	88	84	78.6	92.8	94.8	93.3	94.2	108	117	108	107	111	92
CNC(=O)[C@H](Cc1ccccc1)NC(=O)[C@H](CC(C)C)[C@H](CSc1cccs1)C(=O)NO	85.6	76.9	73.4	81.1	93.5	87.7	87.2	95.4	75	78.3	91.8	78.9	89	81.5	96.7	87.6	89.1	101	92.8	83	70.8	81.3	79.9	100	91.7	101	86.8	93.7	97.8	94.7	89.4	77.8	79.7
Cc1cc(O)c2c3c4c(cc(O)c13)C(C)(C)C(=O)c1c(O)cc(O)c(c1-4)C2=O	106	109	109	101	88.6	101	90.5	104	101	85.2	26.1	89.5	95.2	118	98.9	109	86.5	107	107	112	114	36.5	125	121	107	115	109	112	115	99.2	114	101	7.32
CC1(C)[C@@H](O[C@H]2O[C@H](C(=O)O)[C@@H](O)[C@H](O)[C@H]2O[C@@H]2O[C@H](C(=O)O)[C@@H](O)[C@H](O)[C@H]2O)CC[C@]2(C)[C@H]3C(=O)C=C4[C@@H]5C[C@@](C)(C(=O)O)CC[C@]5(C)CC[C@@]4(C)[C@]3(C)CC[C@@H]12												109	123	134	142	154	145	136	160	154	140	161											
Cc1ccc(NC(=O)C2(c3ccc4c(c3)OC(F)(F)O4)CC2)nc1-c1cccc(C(=O)O)c1	97.6	93.2	99.6	96.9	91.6	43.4	17.4	10.2	7.42	6.77	4.07	99.8	99.8	92.1	110	102	56.8	27	11.4	8.3	7.38	4.48	107	122	95.4	102	98.8	53.4	19	9.04	7.86	6.36	4.68
COc1cc(N2CCC(O)CC2)ccc1Nc1cc(Nc2ccccc2[S+](=O)([O-])C(C)C)c2cc[nH]c2n1	91.7	92.6	84.6	84.9	98.7	84.4	92.4	86.6	87.6	74	71.9	90.4	83.4	97.3	100	101	87.8	63.4	84.7	87.5	67	67.1	105	131	64.6	53.7	96.5	96.3	89	79	74.1	62.1	65.6
